The source of these data is US8148391B2 (Cephalon, Inc., priority 2006, dated 2012).

The target in assay [1] is T1, baculovirus-expressed ALK (Homo sapiens, UniProt Q9UM73).
T1 construct: host or cells: baculovirus expression system
Kind of assay: ALK Kinase Assay (ELISA-type, time-resolved fluorescence). It counts as biochemical. The note with it: 1 μM ATP (Km level), 30 ng/ml ALK, 37° C., 15 minutes; read-out: ALK Activity (ALK kinase inhibition, IC50 class). An outline of the steps: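 Wells were coated with phospholipase C-γ at 10 μg/mL in Tris-buffered saline. Adding 30 ng/ml enzyme started the reaction, which ran at 37° C for 15 minutes before Eu-N1 PT66 antibody detection. Percent inhibition versus log10 concentration gave IC50 by variable-slope fit.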

Assay [2] addresses T2, c-Met (cytoplasmic domain) (Homo sapiens, UniProt P08581).
T2 construct: 10 ng/mL c-Met (cytoplasmic domain, Invitrogen Corporation #PV3143); purchased Invitrogen Corporation PV3143
In words: c-Met Kinase Assay (same methods as for ALK, with modifications). It counts as biochemical. The note with it: 1 μM ATP (Km level), 10 ng/mL c-Met; read-out: cMet Activity (c-Met kinase inhibition, IC50 class). An outline of the steps: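 Steps: coat wells with PLC-γ (10 μg/mL, Tris-buffered saline); add 10 ng/mL c-Met cytoplasmic domain to initiate; incubate 15 min, 37° C; detect phosphoproduct via Eu-N1 PT66 antibody.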

T1 sequence (Q9UM73 19-1620): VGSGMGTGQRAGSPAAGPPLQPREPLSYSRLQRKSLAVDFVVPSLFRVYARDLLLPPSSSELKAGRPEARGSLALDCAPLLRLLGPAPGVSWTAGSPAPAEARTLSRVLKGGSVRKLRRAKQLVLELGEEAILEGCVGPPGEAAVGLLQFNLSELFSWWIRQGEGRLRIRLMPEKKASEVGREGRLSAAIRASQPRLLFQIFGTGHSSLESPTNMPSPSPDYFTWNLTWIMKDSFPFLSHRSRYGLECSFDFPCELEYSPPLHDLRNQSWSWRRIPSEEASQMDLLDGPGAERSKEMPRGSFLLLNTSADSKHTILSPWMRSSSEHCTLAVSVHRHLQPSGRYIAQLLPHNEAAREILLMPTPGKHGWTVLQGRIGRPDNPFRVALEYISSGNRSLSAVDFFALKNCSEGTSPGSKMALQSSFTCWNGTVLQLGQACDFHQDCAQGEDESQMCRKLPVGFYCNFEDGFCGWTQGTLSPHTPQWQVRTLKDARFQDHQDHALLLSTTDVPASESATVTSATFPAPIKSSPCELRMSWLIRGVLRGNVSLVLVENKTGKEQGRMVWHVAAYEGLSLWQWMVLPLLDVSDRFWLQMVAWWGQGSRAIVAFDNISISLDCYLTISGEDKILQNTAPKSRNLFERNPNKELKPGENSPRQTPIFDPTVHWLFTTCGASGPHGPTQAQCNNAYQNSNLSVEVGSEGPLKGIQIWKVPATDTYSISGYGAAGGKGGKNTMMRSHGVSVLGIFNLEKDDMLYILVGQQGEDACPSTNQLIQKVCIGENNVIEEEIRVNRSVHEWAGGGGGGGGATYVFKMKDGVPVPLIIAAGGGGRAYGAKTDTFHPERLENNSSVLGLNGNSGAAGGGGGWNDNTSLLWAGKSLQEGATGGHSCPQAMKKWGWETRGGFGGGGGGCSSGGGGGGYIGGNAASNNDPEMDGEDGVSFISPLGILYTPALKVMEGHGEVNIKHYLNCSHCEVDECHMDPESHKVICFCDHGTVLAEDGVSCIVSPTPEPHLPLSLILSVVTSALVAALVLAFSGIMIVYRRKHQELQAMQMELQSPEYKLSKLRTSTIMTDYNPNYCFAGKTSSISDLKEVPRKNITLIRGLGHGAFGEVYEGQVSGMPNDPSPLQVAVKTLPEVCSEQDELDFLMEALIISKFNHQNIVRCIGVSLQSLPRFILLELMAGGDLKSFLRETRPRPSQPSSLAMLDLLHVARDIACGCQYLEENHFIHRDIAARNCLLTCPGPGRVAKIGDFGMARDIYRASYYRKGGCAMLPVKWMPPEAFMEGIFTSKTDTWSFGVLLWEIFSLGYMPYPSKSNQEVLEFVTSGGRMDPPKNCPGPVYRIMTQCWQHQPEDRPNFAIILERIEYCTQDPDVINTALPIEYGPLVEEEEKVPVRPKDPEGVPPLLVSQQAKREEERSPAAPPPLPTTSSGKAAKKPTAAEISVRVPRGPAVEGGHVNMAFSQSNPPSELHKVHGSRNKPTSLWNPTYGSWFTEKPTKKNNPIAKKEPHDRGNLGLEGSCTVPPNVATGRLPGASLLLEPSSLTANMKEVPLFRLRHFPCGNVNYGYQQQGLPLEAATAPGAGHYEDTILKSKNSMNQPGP
T2 sequence (P08581 956-1390 limits assumed): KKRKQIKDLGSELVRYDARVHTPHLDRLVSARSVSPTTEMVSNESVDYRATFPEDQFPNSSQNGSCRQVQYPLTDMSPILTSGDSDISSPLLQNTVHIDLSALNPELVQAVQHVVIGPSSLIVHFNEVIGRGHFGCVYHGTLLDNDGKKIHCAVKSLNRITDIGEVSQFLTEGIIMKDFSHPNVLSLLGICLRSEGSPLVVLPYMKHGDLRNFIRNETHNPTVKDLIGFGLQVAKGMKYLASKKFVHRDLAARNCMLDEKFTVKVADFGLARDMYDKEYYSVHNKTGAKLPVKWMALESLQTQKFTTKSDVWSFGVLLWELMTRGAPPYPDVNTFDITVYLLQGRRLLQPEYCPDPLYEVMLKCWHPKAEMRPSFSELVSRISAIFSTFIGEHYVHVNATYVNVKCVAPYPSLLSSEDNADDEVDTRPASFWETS

For the molecule `C#CCNC(=O)c1cccc(F)c1Nc1nc(Nc2ccc3c(c2)NC(=O)C(NC(=O)COC)CC3(C)C)ncc1Cl` (stereo not drawn) [Example 1293, 2-{5-Chloro-2-[3-(2-methoxy-acetylamino)-5,5-dimethyl-2-oxo-2,3,4,5-tetrahydro-1H-1-benzazepin-8-ylamino]-pyrimidin-4-ylamino}-3-fluoro-N-prop-2-ynyl-benzamide], the IC50 in assay [1] and in assay [2] was under 100 nM in each case.

Regarding `CNC(=O)c1cccc(F)c1Nc1nc(Nc2ccc3c(c2)NCC(NCCOC)CC3(C)C)ncc1Cl` (stereo not drawn) [Example 1294, 2-{5-Chloro-2-[3-(2-methoxy-ethylamino)-5,5-dimethyl-2,3,4,5-tetrahydro-1H-1-benzazepin-8-ylamino]-pyrimidin-4-ylamino}-3-fluoro-N-methyl-benzamide], the IC50 in assay [1] and in assay [2] was under 100 nM each time.

In the case of `C#CCNC(=O)c1cccc(F)c1Nc1nc(Nc2ccc3c(c2)NC(=O)C(NC(=O)N2CCCC2)CC3(C)C)ncc1Cl` (stereo not drawn) [Example 1296, Pyrrolidine-1-carboxylic acid {8-[5-chloro-4-(2-fluoro-6-prop-2-ynylcarbamoyl-phenylamino)-pyrimidin-2-ylamino]-5,5-dimethyl-2-oxo-2,3,4,5-tetrahydro-1H-1-benzazepin-3-yl}-amide], the IC50 in assay [1] is 100 to 1000 nM; in assay [2], under 100 nM.

With `CN1C(=O)OCCc2cc(Nc3ncc(Cl)c(Nc4c(F)cccc4OC4CCOC4)n3)ccc21` (stereo not drawn) [Example 1300, 2-{5-Chloro-4-[2-fluoro-6-(tetrahydro-furan-3-yloxy)-phenylamino]-pyrimidin-2-ylamino}-5-methyl-8,9-dihydro-5H-7-oxa-5-aza-benzocyclohepten-6-one], the IC50 in assay [1] is 100 to 1000 nM; in assay [2] it was under 100 nM.

For `CNC(=O)c1ccccc1Nc1nc(Nc2ccc3c(c2)CNC(=O)CCN3C(=O)C(F)(F)F)ncc1Cl` [Example 1301, 2-{5-Chloro-2-[4-oxo-1-(2,2,2-trifluoro-acetyl)-1,2,3,4,5,6-hexahydro-benzo[b][1,5]diazocin-8-ylamino]-pyrimidin-4-ylamino}-N-methyl-benzamide], the IC50 in assay [1] and in assay [2] was under 100 nM each time.

For the molecule `CNC(=O)c1ccccc1Nc1nc(Nc2ccc3c(c2)CNC(=O)CCN3)ncc1Cl` [Example 1302, 2-[5-Chloro-2-(4-oxo-1,2,3,4,5,6-hexahydro-benzo[b][1,5]diazocin-8-ylamino)-pyrimidin-4-ylamino]-N-methyl-benzamide], the IC50 in assay [1] and in assay [2] was under 100 nM throughout.

Take `CNS(=O)(=O)c1ccccc1Nc1nc(Nc2ccc3c(c2)CNC(=O)CCN3C(=O)C(F)(F)F)ncc1Cl` [Example 1303, 2-{5-Chloro-2-[4-oxo-1-(2,2,2-trifluoro-acetyl)-1,2,3,4,5,6-hexahydro-benzo[b][1,5]diazocin-8-ylamino]-pyrimidin-4-ylamino}-N-methyl-benzenesulfonamide]: the IC50 in assay [1] and in assay [2] was under 100 nM in each case.

In the case of `CNC(=O)c1ccccc1Nc1nc(Nc2ccc3c(c2)CNC(=O)CCN3C(C)=O)ncc1Cl` [Example 1305, 2-[2-(1-Acetyl-4-oxo-1,2,3,4,5,6-hexahydro-benzo[b][1,5]diazocin-8-ylamino)-5-chloro-pyrimidin-4-ylamino]-N-methyl-benzamide], the IC50 in assay [1] and in assay [2] was under 100 nM throughout.

Take `CN1C(=O)OCCc2cc(Nc3ncc(Cl)c(Oc4c(F)cccc4OC4CCOC4)n3)ccc21` (stereo not drawn) [Example 1307, 2-{5-Chloro-4-[2-fluoro-6-(tetrahydro-furan-3-yloxy)-phenoxy]-pyrimidin-2-ylamino}-5-methyl-8,9-dihydro-5H-7-oxa-5-aza-benzocyclohepten-6-one]: the IC50 fell in the range of 100 to 1000 nM in assay [1] and 1000 to 10000 nM in assay [2].

Regarding `COCCN1CCc2ccc(Nc3ncc(Cl)c(Oc4c(F)cccc4OC4CCOC4)n3)cc2CC1` (stereo not drawn) [Example 1308, {5-Chloro-4-[2-fluoro-6-(tetrahydro-furan-3-yloxy)-phenoxy]-pyrimidin-2-yl}-[3-(2-methoxy-ethyl)-2,3,4,5-tetrahydro-1H-3-benzazepin-7-yl]-amine], the figures for the IC50 in assay [1] and in assay [2] were 100 to 1000 nM and 1000 to 10000 nM, respectively.

`CCN1C(=O)CCCc2c1ccc(Nc1ncc(Cl)c(Nc3ccc(N4CCN(C)CC4)cc3OC)n1)c2OC` [Example 1311, 7-{5-Chloro-4-[2-methoxy-4-(4-methyl-piperazin-1-yl)-phenylamino]-pyrimidin-2-ylamino}-1-ethyl-6-methoxy-1,3,4,5-tetrahydro-benzo[b]azepin-2-one]: the IC50 in assay [1] is under 100 nM; in assay [2], over 10000 nM.

For the molecule `COc1cc2c(cc1Nc1ncc(Cl)c(N[C@H]3[C@@H](C(N)=O)[C@@H]4C=C[C@H]3C4)n1)C(C)(C)CCC(=O)N2` [Example 1312], the values for the IC50 in assay [1] and in assay [2] were under 100 nM and over 10000 nM, respectively.

For `COc1cc2c(cc1Nc1ncc(Cl)c(N[C@H]3[C@@H](C(N)=O)[C@@H]4C=C[C@H]3C4)n1)C(C)(C)CCC(=O)N2C` [Example 1313, (1S,2S,3R,4R)-3-[5-Chloro-2-(8-methoxy-1,5,5-trimethyl-2-oxo-2,3,4,5-tetrahydro-1H-benzo[b]azepin-7-ylamino)-pyrimidin-4-ylamino]-bicyclo[2.2.1]hept-5-ene-2-carboxylic acid amide], the half-maximal inhibitory concentration (IC50) was under 100 nM in assay [1] and over 10000 nM in assay [2].

As to `CCN1C(=O)CCC(C)(C)c2cc(Nc3ncc(Cl)c(N[C@H]4[C@@H](C(N)=O)[C@@H]5C=C[C@H]4C5)n3)c(OC)cc21` [Example 1314, (1S,2S,3R,4R)-3-[5-Chloro-2-(1-ethyl-8-methoxy-5,5-dimethyl-2-oxo-2,3,4,5-tetrahydro-1H-benzo[b]azepin-7-ylamino)-pyrimidin-4-ylamino]-bicyclo[2.2.1]hept-5-ene-2-carboxylic acid amide], the IC50 in assay [1] was under 100 nM; in assay [2], over 10000 nM.

In the case of `COCCN1CCc2cc(Nc3ncc(Cl)c(N[C@H]4[C@@H](C(N)=O)[C@@H]5C=C[C@H]4C5)n3)c(OC)cc2CC1` [Example 1315, (1S,2S,3R,4R)-3-{5-Chloro-2-[8-methoxy-3-(2-methoxy-ethyl)-2,3,4,5-tetrahydro-1H-benzo[d]azepin-7-ylamino]-pyrimidin-4-ylamino}-bicyclo[2.2.1]hept-5-ene-2-carboxylic acid amide], the IC50 was under 100 nM in assay [1] and over 10000 nM in assay [2].

Take `CCN1C(=O)CCCc2cc(Nc3ncc(Cl)c(Nc4ccccc4-n4cccn4)n3)c(OC)cc21` [Example 1317, 7-[5-Chloro-4-(2-pyrazol-1-yl-phenylamino)-pyrimidin-2-ylamino]-1-ethyl-8-methoxy-1,3,4,5-tetrahydro-benzo[b]azepin-2-one]: the IC50 in assay [1] was under 100 nM; in assay [2], over 10000 nM.

As for `CCN1C(=O)CCCc2cc(Nc3ncc(Cl)c(Nc4ccccc4OC)n3)c(OC)cc21` [Example 1318, 7-[5-Chloro-4-(2-methoxy-phenylamino)-pyrimidin-2-ylamino]-1-ethyl-8-methoxy-1,3,4,5-tetrahydro-benzo[b]azepin-2-one], the half-inhibitory concentration (IC50) in assay [1] was 100 to 1000 nM; in assay [2] it was over 10000 nM.

For `CCN1C(=O)CCCc2c1ccc(Nc1ncc(Cl)c(Nc3ccccc3-n3cccn3)n1)c2OC` [Example 1319, 7-[5-Chloro-4-(2-pyrazol-1-yl-phenylamino)-pyrimidin-2-ylamino]-1-ethyl-6-methoxy-1,3,4,5-tetrahydro-benzo[b]azepin-2-one], the IC50 in assay [1] was under 100 nM; in assay [2], over 10000 nM.
